Reference: patent publication US11407750B2, “Derivatives of an FGFR inhibitor” (Incyte Corporation, priority 2019, dated 2022)
Like-named read-outs stand apart in the source and are kept apart here.

Tests used:
FGFR1 = FGFR1 (Homo sapiens (Human), UniProt P11362); assay: FGFR Enzymatic Assay (FRET peptide phosphorylation), FGFR1; type: biochemical
Protocol: (§1) The inhibitor potency of the exemplified compounds was determined in an enzyme discontinuous assay that measures peptide phosphorylation using FRET measurements to detect product formation. Inhibitors were serially diluted in DMSO and a volume of 0.2 μL was transferred to the wells of a 384-well plate. For the isoforms of FGFR (−1, −2, −3 wild-type and mutant isoforms, −4) including phosphorylated and un-phosphorylated proteins, a 5 μL/well volume of enzyme diluted in assay buffer (50 mM HEPES, 10 mM MgCl2, 1 mM EGTA, 0.01% Tween-20, 5 mM DTT, pH 7.5) was added to the plate and pre-incubated with inhibitor for 5 to 15 minutes at ambient temperature. Appropriate controls (enzyme blank and enzyme with no inhibitor) were included on the plate. The reaction was initiated by the addition of a 5 μL/well volume containing both biotinylated […] […] The ATP Km values were pre-determined for each FGFR isoform in a separate series of experiments. […] The plate was allowed to equilibrate for ˜10 minutes at ambient temperature before scanning on a PheraStar plate reader (BMG Labtech) instrument.
(§2) Either GraphPad prism or XLfit was used to analyze the data. The IC50 values were derived by fitting the data to a four parameter logistic equation producing a sigmoidal dose-response curve with a variable Hill coefficient. Prism equation: Y=Bottom+(Top−Bottom)/(1+10^((Log IC50−X)*Hill slope)); […]

P-gp = P-gp (Homo sapiens (Human), UniProt P08183); assay: Bidirectional transport across Caco-2 monolayers (P-gp mediated transport); type: in vitro ADME; conditions: for Papp A→B at 120 min, 3 μM / Papp B→A at 120 min, 3 μM / efflux ratio at 120 min, 3 μM / Papp A→B at 120 min, 30 μM / Papp B→A at 120 min, 30 μM / efflux ratio at 120 min, 30 μM: human; for efflux ratio at 120 min, 3 μM / efflux ratio at 120 min, 30 μM: read-out: Efflux Ratio (B-A/A-B)
Chain of P-gp (P08183 whole entry): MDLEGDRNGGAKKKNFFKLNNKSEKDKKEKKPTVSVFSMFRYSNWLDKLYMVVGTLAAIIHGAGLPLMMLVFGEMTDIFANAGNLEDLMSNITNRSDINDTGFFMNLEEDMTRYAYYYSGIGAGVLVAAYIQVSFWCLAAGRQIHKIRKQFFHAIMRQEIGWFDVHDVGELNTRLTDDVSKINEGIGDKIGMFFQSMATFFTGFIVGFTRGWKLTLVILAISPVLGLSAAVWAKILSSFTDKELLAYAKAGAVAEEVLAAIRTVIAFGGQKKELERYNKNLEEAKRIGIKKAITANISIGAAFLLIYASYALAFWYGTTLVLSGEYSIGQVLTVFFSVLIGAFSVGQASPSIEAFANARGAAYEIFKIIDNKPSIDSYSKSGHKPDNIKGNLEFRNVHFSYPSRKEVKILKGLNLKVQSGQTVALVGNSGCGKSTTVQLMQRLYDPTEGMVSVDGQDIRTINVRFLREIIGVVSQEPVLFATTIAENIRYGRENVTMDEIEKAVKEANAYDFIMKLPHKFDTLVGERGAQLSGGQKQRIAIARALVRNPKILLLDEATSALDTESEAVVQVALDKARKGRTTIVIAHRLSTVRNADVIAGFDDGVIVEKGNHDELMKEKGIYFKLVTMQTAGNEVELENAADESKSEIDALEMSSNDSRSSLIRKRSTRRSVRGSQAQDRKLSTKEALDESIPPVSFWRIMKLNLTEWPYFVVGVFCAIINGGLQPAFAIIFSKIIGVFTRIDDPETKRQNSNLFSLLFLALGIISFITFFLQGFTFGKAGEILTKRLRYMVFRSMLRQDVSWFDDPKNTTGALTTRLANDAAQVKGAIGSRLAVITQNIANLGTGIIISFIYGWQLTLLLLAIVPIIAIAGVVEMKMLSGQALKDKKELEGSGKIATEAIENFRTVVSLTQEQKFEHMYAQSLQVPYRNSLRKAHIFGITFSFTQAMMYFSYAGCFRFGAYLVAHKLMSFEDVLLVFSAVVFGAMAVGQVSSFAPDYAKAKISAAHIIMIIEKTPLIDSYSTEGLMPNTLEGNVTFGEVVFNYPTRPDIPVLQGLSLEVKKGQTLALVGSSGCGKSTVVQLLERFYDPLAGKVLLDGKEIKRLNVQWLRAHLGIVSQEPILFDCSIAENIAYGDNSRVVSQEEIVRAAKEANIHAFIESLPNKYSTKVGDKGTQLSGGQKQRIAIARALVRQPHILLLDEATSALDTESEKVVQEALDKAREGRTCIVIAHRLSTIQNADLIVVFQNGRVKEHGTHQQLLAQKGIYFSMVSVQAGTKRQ
Protocol: (§3) Caco-2 cells were grown in 96-well transwell plates with a seeding density of 14000 cell/well in DMEM medium. To determine the permeability in the absorptive direction (A-B), the test compound in HBSS was added to the donor compartment (apical side), and 4% BSA in HBSS was added into the receiver compartment (basolateral side). To determine whether a compound is a P-gp substrate, permeability values were measured in both the A-B and B-A directions (bidirectional transport assay) in the absence of 4% BSA. Digoxin and cyclosporine A were included as positive controls for P-gp substrate and inhibitor, respectively, to ensure the functionality of P-gp in the bidirectional transport assay. The test compound at various concentrations was added in the donor compartment (apical side for A-B transport and basolateral side for B-A transport) while HBSS solution was added in the receiver compartment (basolateral side for A-B transport and apical side for B-A transport). For permeability studies in the A-B direction, the donor volume was 0.075 mL, and the receiver volume was 0.25 mL. For permeability studies in the B-A direction, the donor volume was 0.25 mL, and the receiver volume was 0.075 mL. The incubation was carried out at 37° C. for 120 minutes. Transepithelial electrical resistance (TEER) was measured before and after the 120 minutes incubation to ensure the integrity of the cell monolayers. At the end of the incubation period, samples were removed from both the donor and receiver sides and mixed with acetonitrile for protein precipitation. The supernatants were collected after centrifugation for analysis using LC-MS/MS method.
(§4) Permeability coefficient (Papp) values from Caco-2 studies were determined using the following equation: Papp(cm/s)=(F*VD)/(SA*MD) where the flux rate (F, mass/time) was calculated from the slope of cumulative amounts of compound of interest on the receiver side, SA is the surface area of the cell membrane, VD is the donor volume, and MD is the initial amount of the solution in the donor chamber.
The efflux ratio from Caco-2 studies was calculated as the ratio of the Papp measured in the B-A direction divided by the Papp in the A-B direction.

[1] = target: tyrosine-phosphorylated Fibroblast Growth Factor Receptor 2 alpha (FGFR2α) in KATO III cells (Homo sapiens, UniProt P21802); assay: KATOIII Whole Blood pFGFR2α ELISA Assay; type: cell-based; conditions: KATO III cells spiked into human whole blood, 4 hours; read-out: FGFR2_WB_ELISA-KATOIII IC50
Chain of tyrosine-phosphorylated Fibroblast Growth Factor Receptor 2 alpha (FGFR2α) in KATO III cells (P21802 22-821 limits assumed): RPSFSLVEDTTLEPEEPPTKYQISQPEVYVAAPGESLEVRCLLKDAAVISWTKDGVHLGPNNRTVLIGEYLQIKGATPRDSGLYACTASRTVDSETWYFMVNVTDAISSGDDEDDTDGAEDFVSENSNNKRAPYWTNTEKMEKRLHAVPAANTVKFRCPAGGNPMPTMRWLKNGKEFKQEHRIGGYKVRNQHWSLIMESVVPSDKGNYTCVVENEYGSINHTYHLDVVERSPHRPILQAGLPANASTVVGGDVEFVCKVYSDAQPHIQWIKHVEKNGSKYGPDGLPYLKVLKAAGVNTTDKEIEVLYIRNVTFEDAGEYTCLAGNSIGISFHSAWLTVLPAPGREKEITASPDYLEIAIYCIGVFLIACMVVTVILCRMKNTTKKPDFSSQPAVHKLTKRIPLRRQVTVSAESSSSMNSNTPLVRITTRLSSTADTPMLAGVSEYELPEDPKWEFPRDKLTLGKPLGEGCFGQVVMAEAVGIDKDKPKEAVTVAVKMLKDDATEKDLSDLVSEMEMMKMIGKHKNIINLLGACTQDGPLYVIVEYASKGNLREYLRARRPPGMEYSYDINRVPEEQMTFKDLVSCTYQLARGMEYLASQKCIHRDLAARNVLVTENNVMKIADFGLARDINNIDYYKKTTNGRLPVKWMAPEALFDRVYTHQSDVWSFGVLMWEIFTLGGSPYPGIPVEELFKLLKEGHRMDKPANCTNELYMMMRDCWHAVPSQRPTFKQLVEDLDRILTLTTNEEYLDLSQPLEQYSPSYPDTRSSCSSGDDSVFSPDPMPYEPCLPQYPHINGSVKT
Protocol: To measure tyrosine-phosphorylated Fibroblast Growth Factor Receptor 2 alpha (FGFR2a) in KATO III spiked whole blood assay, KATO III cells were purchased from ATCC and maintained in Iscove's medium with 20% FBS (Gibco/Life Technologies). […] 50 uL of the cells were then spiked into a 96-deep well 2 ml polypropylene assay block (Costar) in the presence or absence of a concentration range of test compounds and 300 ul human heparinized whole blood (Biological Specialty Corp, Colmar Pa.). After 4 hours incubation in 37° C., the red cells were lysed using Qiagen EL buffer and the cell lysates were resuspended in lysis buffer (Cell Signaling) containing standard protease inhibitor cocktail (Calbiochem/EMD) and PMSF (Sigma) for 30 minutes ice. […] IC50 determination was performed by fitting the curve of inhibitor percent inhibition versus the log of the inhibitor concentration using the GraphPad Prism 5.0 software.

FGFR2 = FGFR2 (Homo sapiens (Human), UniProt P21802); assay: FGFR Enzymatic Assay (FRET peptide phosphorylation), FGFR2; type: biochemical
Chain of FGFR2 (P21802 22-821): as the sequence (P21802 22-821 limits assumed) above
Protocol: as §1, §2

Caco-2 cells = assay: Permeability in Caco-2 cells (absorptive direction A-B); type: in vitro ADME; conditions: 4% BSA in receiver
Protocol: as §3, §4

[2] = as above; type: in vitro ADME; conditions: human, Caco-2, 4% BSA in receiver, read-out: CACO2 Pm
Protocol: as §3, §4

FGFR3 = FGFR3 (Homo sapiens (Human), UniProt P22607); assay: FGFR Enzymatic Assay (FRET peptide phosphorylation), FGFR3; type: biochemical
Chain of FGFR3 (P22607 23-806): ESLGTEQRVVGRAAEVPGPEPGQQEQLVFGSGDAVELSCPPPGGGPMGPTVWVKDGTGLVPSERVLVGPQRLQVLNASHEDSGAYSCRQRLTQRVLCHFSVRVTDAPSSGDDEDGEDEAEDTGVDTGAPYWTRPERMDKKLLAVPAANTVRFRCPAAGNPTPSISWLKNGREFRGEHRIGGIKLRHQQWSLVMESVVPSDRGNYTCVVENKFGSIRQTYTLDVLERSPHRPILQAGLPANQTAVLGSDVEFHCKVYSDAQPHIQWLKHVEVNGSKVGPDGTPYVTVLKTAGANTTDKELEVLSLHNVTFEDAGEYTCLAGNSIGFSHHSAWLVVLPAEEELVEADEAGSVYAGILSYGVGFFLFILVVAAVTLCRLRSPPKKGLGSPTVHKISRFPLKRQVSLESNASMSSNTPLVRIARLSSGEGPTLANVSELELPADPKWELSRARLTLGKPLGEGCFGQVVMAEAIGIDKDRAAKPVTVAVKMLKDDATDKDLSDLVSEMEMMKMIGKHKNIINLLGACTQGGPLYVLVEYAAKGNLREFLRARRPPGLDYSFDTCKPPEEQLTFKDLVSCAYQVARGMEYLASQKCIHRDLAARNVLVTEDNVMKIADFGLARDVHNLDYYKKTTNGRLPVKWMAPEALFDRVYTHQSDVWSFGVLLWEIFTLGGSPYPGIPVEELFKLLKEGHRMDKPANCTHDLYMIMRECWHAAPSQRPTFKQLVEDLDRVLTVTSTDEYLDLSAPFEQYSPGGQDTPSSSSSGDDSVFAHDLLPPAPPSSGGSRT
Protocol: as §1, §2

[3] = Compound 1 human absorption, metabolism, and excretion study (single oral dose of [14C] Compound 1); type: in vivo; conditions: feces
Protocol: An open label-study was conducted, assessing the mass balance, pharmacokinetics, and metabolite profiles of a single oral dose of [14C] Compound 1:
Blood/plasma, urine, and feces were collected from participants for 4 to 10 days after administration.
Human discharge criteria includes that a minimum of 90% of the administered radioactive dose is recovered; and that less than or equal to 1% of the administered radioactive dose is recovered in excreta (urine and feces combined) in 2 consecutive 24-hour urine and fecal collection samples.

[4] = Caco-2, with cyclosporine A (CSA) 10 μM, with CSA 10 μM

Chain of FGFR1 (P11362 22-822): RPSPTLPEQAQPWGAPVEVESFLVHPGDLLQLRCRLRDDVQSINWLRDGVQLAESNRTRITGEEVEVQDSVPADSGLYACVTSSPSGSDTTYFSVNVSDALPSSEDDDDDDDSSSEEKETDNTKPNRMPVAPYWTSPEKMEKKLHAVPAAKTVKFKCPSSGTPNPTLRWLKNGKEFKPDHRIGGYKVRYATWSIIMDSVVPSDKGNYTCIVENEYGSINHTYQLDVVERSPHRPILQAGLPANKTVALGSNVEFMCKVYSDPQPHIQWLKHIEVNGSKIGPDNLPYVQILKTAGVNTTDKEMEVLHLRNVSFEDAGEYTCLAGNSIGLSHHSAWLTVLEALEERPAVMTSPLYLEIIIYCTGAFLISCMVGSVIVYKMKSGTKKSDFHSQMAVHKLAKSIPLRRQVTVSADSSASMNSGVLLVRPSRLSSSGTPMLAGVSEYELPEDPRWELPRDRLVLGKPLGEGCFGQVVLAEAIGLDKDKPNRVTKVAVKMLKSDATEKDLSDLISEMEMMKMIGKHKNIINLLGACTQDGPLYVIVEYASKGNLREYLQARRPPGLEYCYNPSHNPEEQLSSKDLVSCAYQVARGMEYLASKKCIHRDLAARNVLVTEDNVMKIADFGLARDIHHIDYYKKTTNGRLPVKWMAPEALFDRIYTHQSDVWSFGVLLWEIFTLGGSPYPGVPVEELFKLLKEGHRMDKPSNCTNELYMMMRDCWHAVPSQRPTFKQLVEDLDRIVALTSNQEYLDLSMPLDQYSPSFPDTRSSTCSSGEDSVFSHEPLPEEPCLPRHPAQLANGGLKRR

Question: Which IC50 (FGFR1) does the source give for CCN1C(=O)N(c2c(F)c(O)cc(OC)c2F)Cc2cnc3[nH]c(CN4CCOCC4)cc3c21 [Compound 2, 3-(2,6-difluoro-3-hydroxy-5-methoxyphenyl)-1-ethyl-8-(morpholinomethyl)-1,3,4,7-tetrahydro-2H-pyrrolo[3′,2′:5,6]pyrido[4,3-d]pyrimidin-2-one] here?
Answer: < 10 nM

Question: What about the “substrate for Pgp transport” value (P-gp; comparison of efflux ratios at 30 μM) of the same compound?
Answer: more effective substrate for Pgp transport than Compound 1

Question: What about the Papp A→B at 120 min, 3 μM (P-gp; [4]) of the same compound?
Answer: 0.65 ± 0.11 ×10⁻⁶ cm/s

Question: What about the Papp B→A at 120 min, 3 μM (P-gp; [4]) of the same compound?
Answer: 2.2 ± 0.49 ×10⁻⁶ cm/s

Question: What about the efflux ratio at 120 min, 3 μM (P-gp; [4]) of the same compound?
Answer: 3.3 ± 1.2

Question: And the Papp A→B at 120 min, 30 μM (P-gp; [4])?
Answer: 2 ± 0.33 ×10⁻⁶ cm/s

Question: And the Papp B→A at 120 min, 30 μM (P-gp; [4])?
Answer: 3.1 ± 1.2 ×10⁻⁶ cm/s

Question: What about the efflux ratio at 120 min, 30 μM (P-gp; [4]) of the same compound?
Answer: 1.5 ± 0.59

Question: And the Papp A→B at 120 min, 3 μM (P-gp; Caco-2, no inhibitor)?
Answer: 0.43 ± 0.15 ×10⁻⁶ cm/s

Question: What about the Papp B→A at 120 min, 3 μM (P-gp; Caco-2, no inhibitor) of the same compound?
Answer: 11 ± 8 ×10⁻⁶ cm/s

Question: And the efflux ratio at 120 min, 3 μM (P-gp; Caco-2, no inhibitor)?
Answer: 25 ± 11

Question: What about the Papp A→B at 120 min, 30 μM (P-gp; Caco-2, no inhibitor) of the same compound?
Answer: 0.41 ± 0.07 ×10⁻⁶ cm/s

Question: What about the Papp B→A at 120 min, 30 μM (P-gp; Caco-2, no inhibitor) of the same compound?
Answer: 7.7 ± 2.8 ×10⁻⁶ cm/s

Question: And the efflux ratio at 120 min, 30 μM (P-gp; Caco-2, no inhibitor)?
Answer: 19

Question: What about the IC50 [1] of the same compound?
Answer: 50 to 250 nM

Question: What about the IC50 (FGFR2) of the same compound?
Answer: < 10 nM

Question: What about the “CACO2 Pm” value (Caco-2 cells) of the same compound?
Answer: 0.5 ×10E−6 cm/s

Question: What about the Papp A→B at 120 min [2] of the same compound?
Answer: 0.5 ×10⁻⁶ cm/s

Question: What about the IC50 (FGFR3) of the same compound?
Answer: < 10 nM

Question: And the “% of Administered Dose in Feces Samples” value ([3]; 0-24 h)?
Answer: <0.1%

Question: And the “% of Administered Dose in Feces Samples” value ([3]; 24-48 h)?
Answer: 11.4%

Question: And the “% of Administered Dose in Feces Samples” value ([3]; 48-72 h)?
Answer: 14.5%

Question: What about the “% of Administered Dose in Feces Samples” value ([3]; 72-96 h) of the same compound?
Answer: 14.5%

Question: What about the “% of Administered Dose in Feces Samples” value ([3]; 96-120 h) of the same compound?
Answer: 1.6%

Question: What about the “% of Administered Dose in Feces Samples” value ([3]; 120-144 h) of the same compound?
Answer: 2.9%

Question: What about the “% of Administered Dose in Feces Samples, Sum” value ([3]; sum 0-144 h) of the same compound?
Answer: 44.4%
